The values below are quoted from earlier work in US20250170284A1, “Hydroxamic Acid Macrocyclic Agents With Pendant Chelating Moieties And Complexes Thereof” (LUMIPHORE, INC., priority 2022, published 2025).

For this data set the following is noted: complex formation of the ligand with thorium(IV).

On to “diethylenetriamine pentaacetic acid [DTPA]”, for which the “Log K1” value is listed as 30.34.
